Where two headings read alike, the source gives them in different places.
Tests used:
[1] = target: Beta Secretase enzyme (BACE) (Homo sapiens, UniProt P56817); experiment: In vitro enzymatic BACE FRET (fluorescence resonance energy transfer) assay; format: biochemical;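 also: fluorescence read after 1 h with 50 nM quenched peptide substrate spanning the BACE cleavage site, in pH 4.2 acetate buffer containing 10% DMSO and nonionic detergent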
[2] = tested on: Aβ40 in conditioned medium of cells stably expressing Amyloid Precursor Protein (APP); experiment: In vitro BACE cell-based assay (Aβ40 in conditioned medium, sandwich ELISA); conditions: Homo sapiens;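 also: compounds added as a dilution series, secreted peptide quantified by europium time-resolved fluorescence readout, potency fitted from percent of control versus compound concentration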
[3] = tested on: Abeta peptide; experiment: In vivo inhibition of beta-secretase (reduction of Abeta peptide in brain and cerebrospinal fluid); design: species or system rat; conditions: Rattus norvegicus, po, 4 h, orally administered at 30 mg/kg dose, measured after 4 hours;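 also: abeta peptide quantified by sandwich ELISA with electrochemiluminescence readout in rat brain supernatant or CSF, relative to vehicle-dosed control animals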
[4] = target: CYP3A4 (CYP3A) (Homo sapiens, UniProt P08684); experiment: in vitro; conditions: microsomes, pH 7.4;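 also: inhibition of CYP3A-mediated 1-hydroxymidazolam formation after 10 min incubation with NADPH, quantified by HPLC MS relative to metabolite produced without test compound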
CYP3A4 (CYP3A), sequence (P08684 2-503): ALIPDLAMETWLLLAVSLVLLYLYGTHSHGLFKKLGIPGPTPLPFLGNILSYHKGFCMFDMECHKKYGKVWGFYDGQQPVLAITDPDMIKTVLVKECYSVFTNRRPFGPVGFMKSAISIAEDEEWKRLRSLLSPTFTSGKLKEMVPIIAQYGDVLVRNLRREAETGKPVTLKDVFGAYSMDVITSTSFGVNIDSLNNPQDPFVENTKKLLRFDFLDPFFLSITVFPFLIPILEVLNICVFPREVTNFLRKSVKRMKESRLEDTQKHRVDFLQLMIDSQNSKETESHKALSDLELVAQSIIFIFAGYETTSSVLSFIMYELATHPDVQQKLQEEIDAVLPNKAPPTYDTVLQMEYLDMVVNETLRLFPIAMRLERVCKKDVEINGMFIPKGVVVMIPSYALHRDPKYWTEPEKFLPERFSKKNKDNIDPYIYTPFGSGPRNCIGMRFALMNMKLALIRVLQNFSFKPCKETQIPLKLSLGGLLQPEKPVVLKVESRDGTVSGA

[5] = Microsomal stability assay, rat liver microsomes;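 also: rat liver microsomes (0.25 mg/mL) with about 1 µM compound plus 1 mM NADPH, pH 7.4, 37 °C for 30 min, parent left measured by LC-MS/MS against 0 min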
[6] = Microsomal stability assay, human liver microsomes;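 also: pooled human liver microsomes at 0.25 mg/mL with 1 µM compound and NADPH at 37 °C, pH 7.4, for 30 min, unchanged parent quantified by LC-MS/MS against the 0 min sample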
[7] = target: CYP2D6 (Homo sapiens, UniProt P10635); experiment: CYP2D6 inhibition assay (bufuralol, pooled human liver microsomes)
CYP2D6, sequence (P10635 whole entry): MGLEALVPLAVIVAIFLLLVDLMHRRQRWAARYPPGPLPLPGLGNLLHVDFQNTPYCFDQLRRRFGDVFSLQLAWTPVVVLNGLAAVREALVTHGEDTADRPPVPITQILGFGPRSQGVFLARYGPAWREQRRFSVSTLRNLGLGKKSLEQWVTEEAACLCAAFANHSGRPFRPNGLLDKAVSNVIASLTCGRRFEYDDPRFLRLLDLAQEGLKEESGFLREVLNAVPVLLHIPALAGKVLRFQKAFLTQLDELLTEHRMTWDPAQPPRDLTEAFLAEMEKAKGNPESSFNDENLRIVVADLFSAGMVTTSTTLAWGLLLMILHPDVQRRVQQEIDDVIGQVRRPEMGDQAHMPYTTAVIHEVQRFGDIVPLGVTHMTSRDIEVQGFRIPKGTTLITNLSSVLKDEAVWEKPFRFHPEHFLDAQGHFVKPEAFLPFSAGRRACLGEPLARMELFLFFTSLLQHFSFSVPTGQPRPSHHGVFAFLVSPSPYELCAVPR

[8] = BACE enzyme assay, IC50's in uM, read-out: BACE1 FRET assay
[9] = HEK293, HEK cell-based assay, IC50's in uM, read-out: HEK cell assay
[10] = rat cerebrospinal fluid, read-out: percent reduction of abeta peptide in the cerebrospinal fluid of the rat
[11] = 2D6 IC50 (uM), CYP enzyme inhibition
[12] = BACE enzyme assay IC50, read-out: BACE1 FRET assay
[13] = HEK293, HEK cell-based assay IC50, read-out: HEK cell assay
[14] = 2D6 IC50 (uM), CYP2D6 inhibition
[15] = HEK293, cell-based assay, HEK cells, IC50's in uM, read-out: HEK cell assay
[16] = 2D6 IC50, CYP enzyme inhibition
[17] = rat brain, read-out: percent reduction of abeta peptide in the brain of the rat
[18] = read-out: BACE1 FRET assay (IC50)
[19] = HEK293, HEK cells, read-out: HEK cell assay (IC50)

Beta Secretase enzyme (BACE), sequence (P56817 46-501): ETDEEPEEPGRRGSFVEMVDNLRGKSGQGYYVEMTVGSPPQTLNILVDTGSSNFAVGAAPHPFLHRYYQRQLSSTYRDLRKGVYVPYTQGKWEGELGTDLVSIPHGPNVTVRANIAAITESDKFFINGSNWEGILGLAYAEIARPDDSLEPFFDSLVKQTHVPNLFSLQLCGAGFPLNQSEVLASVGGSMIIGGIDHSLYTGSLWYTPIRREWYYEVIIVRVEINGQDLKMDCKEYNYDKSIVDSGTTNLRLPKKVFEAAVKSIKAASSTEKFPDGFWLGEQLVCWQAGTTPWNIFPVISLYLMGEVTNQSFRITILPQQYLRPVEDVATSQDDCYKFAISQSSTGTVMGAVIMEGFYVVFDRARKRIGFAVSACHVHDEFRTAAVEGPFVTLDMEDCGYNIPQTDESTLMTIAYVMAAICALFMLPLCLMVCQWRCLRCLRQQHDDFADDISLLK

SMILES	IC50 [1, 8]	IC50 [2, 9]	inhibition in vivo at 30 mg/kg [3, 10]	IC50 [4]	RLM ([5]; rat liver microsomal data)	HLM ([6]; human liver microsomal data)	IC50 [7, 11]	IC50 [1, 12]	IC50 [2, 13]	RLM ([5]; rat liver microsomes)	HLM ([6]; human liver microsomes)	IC50 [7, 14]	IC50 [2, 15]	IC50 [7, 16]	inhibition in vivo at 30 mg/kg [3, 17]	IC50 at 10 min ([7]; human, pooled human liver microsomes, pH 7.4, probe bufuralol, about 5 μM, 2D6 IC50, CYP enzyme inhibition)	IC50 [1, 18]	IC50 [2, 19]	IC50 ([7]; 2D6 IC50, CYP2D6 inhibition)
C#Cc1cccc(C[C@H](NC(=O)C(OC)OC)[C@H](O)CN[C@H]2CC3(CCC3)Oc3ncc(CC(C)(C)C)cc32)c1 [Example 844]	0.005 µM	0.006 µM	≥ 50%	100 nM	44 µL/min/mg	32 µL/min/mg	1.5 µM												
COCC(=O)N[C@@H](Cc1ccc(-c2nccs2)c(F)c1)[C@H](O)CN[C@H]1CC2(CCC2)Oc2ncc(CC(C)(C)C)cc21 [Example 730]			10 to 80%	≤ 30 nM				0.039 µM	0.027 µM	74 µL/min/mg	57 µL/min/mg	0.7 µM							
C#Cc1cccc(C[C@H](NC(=O)[C@@H](C)OC)[C@H](O)CN[C@H]2CC3(CCC3)Oc3ncc(CC(C)(C)C)cc32)c1 [Example 849, (2R)-N-((1S,2R)-3-(((4′S)-6′-(2,2-dimethylpropyl)-3′,4′-dihydrospiro[cyclobutane-1,2′-pyrano[2,3-b]pyridin]-4′-yl)amino)-1-(3-ethynylbenzyl)-2-hydroxypropyl)-2-methoxypropanamide]	0.005 µM		≥ 50%	50 nM	43 µL/min/mg	18 µL/min/mg							0.008 µM	3.2 µM					
CO[C@H](C)C(=O)N[C@@H](Cc1cc(F)cc(F)c1)[C@H](O)CN[C@H]1CC2(CCC2)Oc2c1cc(CC(C)C)nc2-c1cncn1C [Example 710]			10 to 80%	100 nM				0.026 µM	0.018 µM	39 µL/min/mg	16 µL/min/mg	2.8 µM							
COCC(=O)N[C@@H](Cc1cccc(-n2ccnc2)c1)[C@H](O)CN[C@H]1CC2(CCC2)Oc2ncc(CC(C)(C)C)cc21 [Example 698, N-((1S,2R)-3-(((4′S)-6′-(2,2-dimethylpropyl)-3′,4′-dihydrospiro[cyclobutane-1,2′-pyrano[2,3-b]pyridin]-4′-yl)amino)-2-hydroxy-1-(3-(1H-imidazol-1-yl)benzyl)propyl)-2-methoxyacetamide]			10 to 80%	≤ 30 nM				0.026 µM	0.009 µM	33 µL/min/mg	58 µL/min/mg	0.1 µM							
CNc1nc(CC(C)(C)C)cc2c1OC1(CCC1)C[C@@H]2NC[C@@H](O)[C@H](Cc1cc(F)cc(-c2nccs2)c1)NC(=O)COC [Example 847]	0.044 µM		≥ 50%	400 nM	201 µL/min/mg	102 µL/min/mg							0.01 µM	0.8 µM	5 to 80%				
CC(C)(C)Cc1cnc2c(c1)[C@@H](NC[C@@H](O)[C@H](Cc1cc(F)cc(-c3nccs3)c1)NC(=O)[C@@H]1CCCO1)CC1(CCC1)O2 [Example 879]	0.006 µM			200 nM	77 µL/min/mg	96 µL/min/mg							0.007 µM		5 to 80%	600 nM			
COCC(=O)N[C@@H](Cc1ccncc1)[C@H](O)CN[C@H]1CC2(CCC2)Oc2c(-c3ccncc3)cc(CC(C)C)cc21 [Example 628]			10 to 80%	100 nM						239 µL/min/mg	94 µL/min/mg						0.045 µM	0.007 µM	1.9 µM
COCC(=O)N[C@@H](Cc1ccc2c(c1)OCO2)[C@H](O)CN[C@H]1CC2(CCC2)Oc2ncc([C@@H]3CC3(C)C)cc21 [Example 575, N-((1S,2R)-1-(1,3-benzodioxol-5-ylmethyl)-3-(((4′S)-6′-((1R)-2,2-dimethylcyclopropyl)-3′,4′-dihydrospiro[cyclobutane-1,2′-pyrano[2,3-b]pyridin]-4′-yl)amino)-2-hydroxypropyl)-2-methoxyacetamide]			10 to 80%	100 nM						194 µL/min/mg	33 µL/min/mg						0.01 µM	0.016 µM	1.5 µM
C#Cc1ccc(F)c(C[C@H](NC(=O)[C@@H](C)OC)[C@H](O)CN[C@H]2CC3(CCC3)Oc3ncc(CC(C)(C)C)cc32)c1 [Example 902]	0.006 µM		10 to 80%	100 nM	70 µL/min/mg	36 µL/min/mg							0.026 µM	0.9 µM					
COCC(=O)N[C@@H](Cc1cccc(C#N)c1)[C@H](O)CN[C@H]1CC2(CCC2)Oc2c(-c3ccncc3)cc(CC(C)(C)C)cc21 [Example 636]			10 to 80%	100 nM						90 µL/min/mg	32 µL/min/mg						0.008 µM	0.005 µM	3 µM
CC(=O)N[C@@H](Cc1ccc(-c2nccs2)cc1)[C@H](O)CN[C@H]1CC2(CCC2)Oc2ncc(CC(C)(C)C)cc21 [Example 677]			10 to 80%	100 nM				0.015 µM	0.028 µM	52 µL/min/mg	57 µL/min/mg	1 µM			5 to 80%				
CO[C@H](C)C(=O)N[C@@H](Cc1cccc(-c2ncco2)c1)[C@H](O)CN[C@H]1CC2(CCC2)Oc2ncc(CC(C)(C)C)cc21 [Example 836, (2R)-N-((1S,2R)-3-(((4′S)-6′-(2,2-dimethylpropyl)-3′,4′-dihydrospiro[cyclobutane-1,2′-pyrano[2,3-b]pyridin]-4′-yl)amino)-2-hydroxy-1-(3-(1,3-oxazol-2-yl)benzyl)propyl)-2-methoxypropanamide]	0.013 µM	0.015 µM	10 to 80%	200 nM	56 µL/min/mg	56 µL/min/mg	0.7 µM												
CO[C@H](C)C(=O)N[C@@H](Cc1ccc(F)c(-c2nccs2)c1)[C@H](O)CN[C@H]1CC2(CCC2)Oc2ncc(CC(C)(C)C)cc21 [Example 690]				100 nM				0.011 µM	0.04 µM	53 µL/min/mg	40 µL/min/mg	0.5 µM			5 to 80%				
C#Cc1cc(C[C@H](NC(=O)COCC)[C@H](O)CN[C@H]2CC3(CCC3)Oc3ncc(CC(C)(C)C)cc32)ccc1F [Example 837]	0.007 µM	0.023 µM	10 to 80%	100 nM	72 µL/min/mg	29 µL/min/mg	1.6 µM												
CC(C)(C)Cc1cnc2c(c1)[C@@H](NC[C@@H](O)[C@H](Cc1cc(F)cc(-c3nccs3)c1)NC(=O)C1CCC1)CC1(CCC1)O2 [Example 875]	0.006 µM			200 nM	81 µL/min/mg	65 µL/min/mg							0.02 µM	0.3 µM	5 to 80%				

From patent US8163909B2, “Substituted hydroxyethyl amine compounds as beta-secretase modulators and methods of use” (Amgen Inc., priority 2007, dated 2012)
